Reference: publication PMC2904774 (PLoS Pathogens, 2010)

Target: T1, NUE (CT737), GST-NUE (Chlamydia trachomatis, UniProt O84742)
T1 construct: gene CT_737
Details: core histones or recombinant H2B, H3, H4 as acceptor, also automethylation; 50 mM Tris pH 8, 20 mM KCl, 10 mM MgCl2, 1 mM DTT, 30 °C, 1 h; labelled compound

T1 sequence (O84742 entry or part of it): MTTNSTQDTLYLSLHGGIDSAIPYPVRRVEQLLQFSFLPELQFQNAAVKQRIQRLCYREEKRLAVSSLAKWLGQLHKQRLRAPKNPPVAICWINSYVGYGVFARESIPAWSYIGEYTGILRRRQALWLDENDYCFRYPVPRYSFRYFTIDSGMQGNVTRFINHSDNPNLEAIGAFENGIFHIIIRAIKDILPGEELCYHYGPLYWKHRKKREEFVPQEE

`C[S+](CC[C@H](N)C(=O)O)C[C@H]1O[C@@H](n2cnc3c(N)ncnc32)[C@H](O)[C@@H]1O` (stereo partly drawn) [SAM, S-adenosyl-L-methionine] was tested, and the “in vitro methyltransferase assay, 14C autoradiography of SDS-PAGE” value was “in vitro methyltransferase assays using GST-NUE purified from E. coli and mammalian histones”.
